Assay results reported in ChEMBL document CHEMBL3045835, “Comparative study of conventional and microwave-assisted synthesis of some Schiff bases and their potential as antimicrobial agents” (2012).
≈ marks a conversion by molar mass, not a printed value.

Assays:
Type in all cases: functional
Escherichia coli [1] = test: Antibacterial activity against Escherichia coli MTCC 1573 after 24 hr by broth dilution method; settings: MTCC 1573, 24 h
Penicillium chrysogenum [2] = test: Antifungal activity against Penicillium chrysogenum MTCC 161 after 24 hr by broth dilution method; settings: MTCC 161, 24 h
Penicillium chrysogenum [3] = test: Antifungal activity against Penicillium chrysogenum MTCC 161 at 500 ug/ml after 18 hr by cup-plate method; settings: MTCC 161, 18 h, read-out: DIZ
Aspergillus niger [4] = test: Antifungal activity against Aspergillus niger MTCC 2546 at 1000 ug/ml after 18 hr by cup-plate method; settings: MTCC 2546, 18 h, read-out: DIZ
Pseudomonas fluorescens [5] = test: Antibacterial activity against Pseudomonas fluorescens MTCC 2421 at 200 ug/ml after 18 hr by cup-plate method; settings: MTCC 2421, 18 h, read-out: DIZ
Penicillium chrysogenum [6] = test: Antifungal activity against Penicillium chrysogenum MTCC 161 at 1500 ug/ml after 18 hr by cup-plate method; settings: MTCC 161, 18 h, read-out: DIZ
Staphylococcus aureus [7] = test: Antibacterial activity against Staphylococcus aureus MTCC 1430 at 1000 ug/ml after 18 hr by cup-plate method; settings: MTCC 1430, 18 h, read-out: DIZ
Penicillium chrysogenum [8] = test: Antifungal activity against Penicillium chrysogenum MTCC 161 at 1000 ug/ml after 18 hr by cup-plate method; settings: MTCC 161, 18 h, read-out: DIZ
Pseudomonas fluorescens [9] = test: Antibacterial activity against Pseudomonas fluorescens MTCC 2421 at 1000 ug/ml after 18 hr by cup-plate method; settings: MTCC 2421, 18 h, read-out: DIZ
Pseudomonas fluorescens [10] = test: Antibacterial activity against Pseudomonas fluorescens MTCC 2421 after 24 hr by broth dilution method; settings: MTCC 2421, 24 h
Micrococcus luteus [11] = test: Antibacterial activity against Micrococcus luteus MTCC 1538 at 1500 ug/ml after 18 hr by cup-plate method; settings: MTCC 1538, 18 h, read-out: DIZ
Pseudomonas fluorescens [12] = test: Antibacterial activity against Pseudomonas fluorescens MTCC 2421 at 500 ug/ml after 18 hr by cup-plate method; settings: MTCC 2421, 18 h, read-out: DIZ
Micrococcus luteus [13] = test: Antibacterial activity against Micrococcus luteus MTCC 1538 after 24 hr by broth dilution method; settings: MTCC 1538, 24 h
Bacillus subtilis = test: Antibacterial activity against Bacillus subtilis MTCC 441 after 24 hr by broth dilution method; settings: MTCC 441, 24 h
Staphylococcus aureus [14] = test: Antibacterial activity against Staphylococcus aureus MTCC 1430 after 24 hr by broth dilution method; settings: MTCC 1430, 24 h
Pseudomonas aeruginosa [15] = test: Antibacterial activity against Pseudomonas aeruginosa MTCC 424 after 24 hr by broth dilution method; settings: MTCC 424, 24 h
Micrococcus luteus [16] = test: Antibacterial activity against Micrococcus luteus MTCC 1538 at 1000 ug/ml after 18 hr by cup-plate method; settings: MTCC 1538, 18 h, read-out: DIZ
Pseudomonas fluorescens [17] = test: Antibacterial activity against Pseudomonas fluorescens MTCC 2421 at 100 ug/ml after 18 hr by cup-plate method; settings: MTCC 2421, 18 h, read-out: DIZ
Staphylococcus aureus [18] = test: Antibacterial activity against Staphylococcus aureus MTCC 1430 at 500 ug/ml after 18 hr by cup-plate method; settings: MTCC 1430, 18 h, read-out: DIZ
Bacillus pumilus = test: Antibacterial activity against Bacillus pumilus MTCC 1456 after 24 hr by broth dilution method; settings: MTCC 1456, 24 h
Pseudomonas fluorescens [19] = test: Antibacterial activity against Pseudomonas fluorescens MTCC 2421 at 1500 ug/ml after 18 hr by cup-plate method; settings: MTCC 2421, 18 h, read-out: DIZ
Micrococcus luteus [20] = test: Antibacterial activity against Micrococcus luteus MTCC 1538 at 100 ug/ml after 18 hr by cup-plate method; settings: MTCC 1538, 18 h, read-out: DIZ
Staphylococcus aureus [21] = test: Antibacterial activity against Staphylococcus aureus MTCC 1430 at 1500 ug/ml after 18 hr by cup-plate method; settings: MTCC 1430, 18 h, read-out: DIZ
Micrococcus luteus [22] = test: Antibacterial activity against Micrococcus luteus MTCC 1538 at 200 ug/ml after 18 hr by cup-plate method; settings: MTCC 1538, 18 h, read-out: DIZ
Staphylococcus aureus [23] = test: Antibacterial activity against Staphylococcus aureus MTCC 1430 at 100 ug/ml after 18 hr by cup-plate method; settings: MTCC 1430, 18 h, read-out: DIZ
Pseudomonas aeruginosa [24] = test: Antibacterial activity against Pseudomonas aeruginosa MTCC 424 at 1500 ug/ml after 18 hr by cup-plate method; settings: MTCC 424, 18 h, read-out: DIZ
Escherichia coli [25] = test: Antibacterial activity against Escherichia coli MTCC 1573 at 1500 ug/ml after 18 hr by cup-plate method; settings: MTCC 1573, 18 h, read-out: DIZ
Micrococcus luteus [26] = test: Antibacterial activity against Micrococcus luteus MTCC 1538 at 500 ug/ml after 18 hr by cup-plate method; settings: MTCC 1538, 18 h, read-out: DIZ
Aspergillus niger [27] = test: Antifungal activity against Aspergillus niger MTCC 2546 after 24 hr by broth dilution method; settings: MTCC 2546, 24 h
Aspergillus niger [28] = test: Antifungal activity against Aspergillus niger MTCC 2546 at 1500 ug/ml after 18 hr by cup-plate method; settings: MTCC 2546, 18 h, read-out: DIZ
Escherichia coli [29] = test: Antibacterial activity against Escherichia coli MTCC 1573 at 1000 ug/ml after 18 hr by cup-plate method; settings: MTCC 1573, 18 h, read-out: DIZ
Aspergillus niger [30] = test: Antifungal activity against Aspergillus niger MTCC 2546 at 500 ug/ml after 18 hr by cup-plate method; settings: MTCC 2546, 18 h, read-out: DIZ
Escherichia coli [31] = test: Antibacterial activity against Escherichia coli MTCC 1573 at 500 ug/ml after 18 hr by cup-plate method; settings: MTCC 1573, 18 h, read-out: DIZ
Staphylococcus aureus [32] = test: Antibacterial activity against Staphylococcus aureus MTCC 1430 at 200 ug/ml after 18 hr by cup-plate method; settings: MTCC 1430, 18 h, read-out: DIZ

## C(=N\c1ccccn1)/c1cccc2ccccc12
Escherichia coli [1]
  MIC: 400 µg/mL (≈ 1720 µM)
Penicillium chrysogenum [2]
  MIC: 500 µg/mL (≈ 2150 µM)
Penicillium chrysogenum [3]
  zone of inhibition at 500 µg/mL: 10 mm
Aspergillus niger [4]
  zone of inhibition at 1000 µg/mL: 13 mm
Pseudomonas fluorescens [5]
  zone of inhibition at 200 µg/mL: 13 mm
Penicillium chrysogenum [6]
  zone of inhibition at 1500 µg/mL: 17 mm
Staphylococcus aureus [7]
  zone of inhibition at 1000 µg/mL: 16 mm
Penicillium chrysogenum [8]
  zone of inhibition at 1000 µg/mL: 12 mm
Pseudomonas fluorescens [9]
  zone of inhibition at 1000 µg/mL: 17 mm
Pseudomonas fluorescens [10]
  MIC: 300 µg/mL (≈ 1290 µM)
Micrococcus luteus [11]
  zone of inhibition at 1500 µg/mL: 24 mm
Pseudomonas fluorescens [12]
  zone of inhibition at 500 µg/mL: 15 mm
Micrococcus luteus [13]
  MIC: 400 µg/mL (≈ 1720 µM)
Bacillus subtilis
  MIC: 500 µg/mL (≈ 2150 µM)
Staphylococcus aureus [14]
  MIC: 400 µg/mL (≈ 1720 µM)
Pseudomonas aeruginosa [15]
  MIC: 500 µg/mL (≈ 2150 µM)
Micrococcus luteus [16]
  zone of inhibition at 1000 µg/mL: 20 mm
Pseudomonas fluorescens [17]
  zone of inhibition at 100 µg/mL: 11 mm
Staphylococcus aureus [18]
  zone of inhibition at 500 µg/mL: 14 mm
Bacillus pumilus
  MIC: 500 µg/mL (≈ 2150 µM)
Pseudomonas fluorescens [19]
  zone of inhibition at 1500 µg/mL: 19 mm
Micrococcus luteus [20]
  zone of inhibition at 100 µg/mL: 11 mm
Staphylococcus aureus [21]
  zone of inhibition at 1500 µg/mL: 20 mm
Micrococcus luteus [22]
  zone of inhibition at 200 µg/mL: 12 mm
Staphylococcus aureus [23]
  zone of inhibition at 100 µg/mL: 11 mm
Pseudomonas aeruginosa [24]
  zone of inhibition at 1500 µg/mL: 15 mm
Escherichia coli [25]
  zone of inhibition at 1500 µg/mL: 16 mm
Micrococcus luteus [26]
  zone of inhibition at 500 µg/mL: 17 mm
Aspergillus niger [27]
  MIC: 500 µg/mL (≈ 2150 µM)
Aspergillus niger [28]
  zone of inhibition at 1500 µg/mL: 15 mm
Escherichia coli [29]
  zone of inhibition at 1000 µg/mL: 14 mm
Aspergillus niger [30]
  zone of inhibition at 500 µg/mL: 12 mm
Escherichia coli [31]
  zone of inhibition at 500 µg/mL: 11 mm
Staphylococcus aureus [32]
  zone of inhibition at 200 µg/mL: 12 mm
